{
  "source": "ChEMBL document CHEMBL6103585",
  "about": "“Construction and activity evaluation of novel CHS inhibitors against fungal infections” (Eur J Med Chem, 2025)",
  "key": {"Candida albicans [1]": {"test_system": "Candida albicans", "experiment": "(§1) In vivo antifungal activity against Candida albicans 901 infected in mouse model assessed as body weight gain at 5 microg/g, iv pre-infected with fungi by intravenous injection followed by compound administration and measured on day 8 in presence of BPE", "type": "functional, organism-based", "conditions": "dose 5.0 µg/g, time 8.0 day"}, "[2]": {"experiment": "Toxicity in mouse infected with Candida albicans 901 assessed as change in AST level (reference value: 76.1 +/-4.2 IU/L)", "conditions": "in vivo"}, "Candida albicans [3]": {"test_system": "Candida albicans", "experiment": "as §1, with “recovery of alveolar structures to normal state in lung” for “body weight gain”, “1-MT by H and E staining based analysis” for “BPE”", "type": "functional, organism-based", "conditions": "dose 5.0 µg/g, time 8.0 day"}, "Candida albicans [4]": {"test_system": "Candida albicans", "experiment": "as §1, with “reduction in genetic material content in lung” for “body weight gain”, “BPE by H and E staining based analysis” for “BPE”", "type": "functional, organism-based", "conditions": "dose 5.0 µg/g, time 8.0 day"}, "Nakaseomyces glabratus": {"test_system": "Nakaseomyces glabratus", "experiment": "Antifungal activity against Candida glabrata assessed as fungal growth inhibition incubated for 72 hrs by broth microdilution method", "type": "functional"}, "Candida albicans [5]": {"test_system": "Candida albicans", "experiment": "as §1, with “decrease in IL-2 protein expression level” for “body weight gain”, “BPE by Western blotting analysis” for “BPE”", "type": "functional, organism-based", "conditions": "dose 5.0 µg/g, time 8.0 day"}, "Candida albicans [6]": {"test_system": "Candida albicans", "experiment": "as §1, with “decrease in IL-2 protein expression level” for “body weight gain”, “1-MT by Western blotting analysis” for “BPE”", "type": "functional, organism-based", "conditions": "dose 5.0 µg/g, time 8.0 day"}, "Candida tropicalis": {"test_system": "Candida tropicalis", "experiment": "Antifungal activity against Candida tropicalis ATCC 1369 assessed as fungal growth inhibition incubated for 72 hrs by broth microdilution method", "type": "functional"}, "Candida albicans [7]": {"test_system": "Candida albicans", "experiment": "In vivo antifungal activity against Candida albicans 901 infected in mouse model assessed as decrease in PD-L1 protein expression level at 5 microg/g, iv pre-infected with fungi by intravenous injection followed by compound administration and measured on day 8 by Western blotting analysis", "type": "functional, organism-based", "conditions": "dose 5.0 µg/g, time 8.0 day"}, "Candida albicans [8]": {"test_system": "Candida albicans", "experiment": "Induction of apoptosis in Candida albicans ATCC SC5314 assessed as necrotic cells by V-FITC/PI staining based flow cytometric analysis (reference value: 2.74%)", "type": "functional"}, "Candida albicans [9]": {"test_system": "Candida albicans", "experiment": "Induction of apoptosis in Candida albicans ATCC SC5314 assessed as late apoptotic cells by V-FITC/PI staining based flow cytometric analysis (reference value: 0.40%)", "type": "functional"}, "Candida albicans [10]": {"test_system": "Candida albicans", "experiment": "(§2) In vivo antifungal activity against Candida albicans 901 infected in mouse model assessed as decrease in IFN-gamma protein expression level at 5 microg/g, iv pre-infected with fungi by intravenous injection followed by compound administration and measured on day 8 by Western blotting analysis", "type": "functional, organism-based", "conditions": "dose 5.0 µg/g, time 8.0 day"}, "[11]": {"experiment": "Inhibition of chitin synthase extracted from Candida tropicalis ATCC 1369 using UDP-GlcNAc as substrate incubated for 1 hrs"}, "Candida albicans [12]": {"test_system": "Candida albicans", "experiment": "as §2, with “8 in presence of BPE” for “8”", "type": "functional, organism-based", "conditions": "dose 5.0 µg/g, time 8.0 day"}, "Candida albicans [13]": {"test_system": "Candida albicans", "experiment": "Antifungal activity against fluconazole-resistant Candida albicans 904 assessed as reduction in fungal growth incubated for 72 hrs by broth microdilution method", "type": "functional"}, "[14]": {"experiment": "Toxicity in mouse infected with Candida albicans 901 assessed as change in CRE level in presence of 1-MT (reference value: 21.5 +/-1.7 umol/L)", "conditions": "in vivo"}, "A549": {"test_system": "A549", "experiment": "Cytotoxicity against human A549 cells incubated for 24 hrs by CCK8 assay", "type": "functional, cell-based", "conditions": "A549, 24 h"}},
  "note": "Activity calls are given as the source filed them. The rule behind the calls is not given here.",
  "data": [
    {"smiles": "O=C(CNC(=O)c1nc2ccc(Cl)cc2c(=O)[nH]1)NCC(=O)c1ccccc1", "values": [
      {"measurement": "Activity", "setting": "Candida albicans [1]", "value": "Active"},
      {"measurement": "Activity", "setting": "[2]", "value": 63.9, "unit": "IU/L"},
      {"measurement": "Activity", "setting": "Candida albicans [3]", "value": "Active"},
      {"measurement": "Activity", "setting": "Candida albicans [4]", "value": "Active"},
      {"measurement": "MIC50", "setting": "Nakaseomyces glabratus", "value": 2, "unit": "µg/mL"},
      {"measurement": "Activity", "setting": "Candida albicans [5]", "value": "Active"},
      {"measurement": "Activity", "setting": "Candida albicans [6]", "value": "Active"},
      {"measurement": "MIC50", "setting": "Candida tropicalis", "value": 0.5, "unit": "µg/mL"},
      {"measurement": "Activity", "setting": "Candida albicans [7]", "value": "Active"},
      {"measurement": "Activity", "setting": "Candida albicans [8]", "value": 15.9, "unit": "%"},
      {"measurement": "Activity", "setting": "Candida albicans [9]", "value": 12.1, "unit": "%"},
      {"measurement": "Activity", "setting": "Candida albicans [10]", "value": "Active"},
      {"measurement": "IC50", "setting": "[11]", "value": 14.7, "unit": "µM"},
      {"measurement": "Activity", "setting": "Candida albicans [12]", "value": "Active"},
      {"measurement": "MIC50", "setting": "Candida albicans [13]", "value": 4, "unit": "µg/mL"},
      {"measurement": "Activity", "setting": "[14]", "value": 20.8, "unit": "µmol/L"},
      {"measurement": "IC50", "setting": "A549", "value": "> 50", "unit": "µM"}
    ]}
  ]
}
